# Read-outs that look alike come from different tables or passages of the source.
# Legend:
# α1-antitrypsin = test: Thermal shift assay (SYPRO Orange); format: biochemical; details: 50 µM Compound 1, SYPRO Orange, versus absence
# Description: The native state stability of serpins on addition of compounds was investigated by thermal denaturation in the presence of a 5× concentration of SYPRO Orange dye solution (Life Technologies). A final protein concentration of 0.1 mg/ml and 50 uM compound suspended in PBS was used (Nettleship et al. Methods Mol Biol. 2008; 426:299-318). The samples were heated from 25° C.-95° C. at a rate of 1° C./min in three separate experiments on an Eppendorph Mastercycler Realplex4 quantitative real-time PCR instrument, and the fluorescence in the 605±15 nm bin recorded. The midpoint of denaturation (Tm) is the temperature at which the first derivative of fluorescence intensity against temperature reaches a maximum.
# Polymerisation of α1-antitrypsin occurs from a transient intermediate state known as M*, that is readily populated by the Z variant. One of the hallmarks of M* is its recognition by environment-sensitive fluorescent reporter dyes. Thermal shift assays that make use of the dye SYPRO Orange report the stability of the protein native state against heat-induced unfolding. […] Native state stability can also be probed by equilibrium unfolding using chemical denaturants, where a peak in bis-ANS fluorescence corresponds with a maximally populated unfolding intermediate.
# Z α1-antitrypsin [1] = biological target: T1, Z α1-antitrypsin (Homo sapiens, UniProt P01009, E366K/V237A); test: Secretion of Z α1-antitrypsin from CHO-TET-ON-Z-A1AT cells (immunoassay of supernatant); format: cell-based; design: expressed in transfected cells; host or cells: CHO Tet-On (CHO-K1) cells, doxycycline-induced
# T1 sequence (P01009 25-418 V237A/E366K): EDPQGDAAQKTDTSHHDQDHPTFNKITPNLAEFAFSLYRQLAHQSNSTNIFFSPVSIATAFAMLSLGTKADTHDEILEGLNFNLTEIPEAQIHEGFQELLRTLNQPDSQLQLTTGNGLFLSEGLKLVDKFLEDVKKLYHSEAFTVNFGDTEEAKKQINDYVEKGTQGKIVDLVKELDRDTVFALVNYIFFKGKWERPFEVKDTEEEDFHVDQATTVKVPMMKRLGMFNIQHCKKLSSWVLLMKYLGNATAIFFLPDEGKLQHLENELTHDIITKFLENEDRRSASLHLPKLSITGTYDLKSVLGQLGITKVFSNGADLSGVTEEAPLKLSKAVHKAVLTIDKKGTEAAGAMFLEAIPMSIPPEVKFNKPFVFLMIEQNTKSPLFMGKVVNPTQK
# Description: CHO Tet-On cells that conditionally express Z α1-antitrypsin (Ordóñez A et al. Hepatology 2013; 57(5):2049-60.) were simultaneously treated with 0.5 μg/mL […] and various concentrations of compounds for 48 hours in 6 well plates. Cells without doxycycline or treated with 1% v/v DMSO acted as controls. The cells were lysed and intracellular Z α1-antitrypsin polymer was evaluated by ELISA sandwich with the 2C1 monoclonal antibody (Miranda et al. Hepatology. 2010; 52:1078-88). Newly synthesised α1-antitrypsin was evaluated by growing cells induced to express Z α1-antitrypsin in DMEM without methionine (Met) and cysteine (Cys) for 1 h and then labelling with 1.3 MBq of ^35S-Met/Cys for 15 min. The cells were then rinsed and incubated in chase medium containing an excess of unlabeled Met and Cys for 0, 2 and 6 h. After the chase period, the medium was collected and cells were harvested. α1-Antitrypsin from the medium and cell lysates was immunoprecipitated with a polyclonal α1-antitrypsin antibody or the 2C1 monoclonal antibody that detects polymers by splitting each sample in two equal parts. Radiolabelled proteins were re-suspended in SDS loading buffer, boiled for 5 min, separated by 10% w/v acrylamide SDS-PAGE, and quantified by autoradiography.
# Its ability to block Z α1-antitrypsin polymerisation in the ER during folding was assessed by adding Compound 1 to CHO-TET-ON-Z-A1AT cells (Ordóñez et al. Hepatology. 2013; 57(5):2049-60) with simultaneous induction of Z α1-antitrypsin expression using doxycycline. […] To investigate whether in addition to blocking polymerisation, Compound 1 was also able to increase secretion of Z α1-antitrypsin, Z α1-antitrypsin expression was induced in CHO-TET-ON-Z-A1AT cells, Compound 1 was added, and the total Z α1-antitrypsin in the supernatant was measured by immunoassay after 6 hours.
# M α1-antitrypsin = biological target: T2, M α1-antitrypsin (Homo sapiens, UniProt P01009); test: Biochemical competition binding assay (TR-FRET), M α1-antitrypsin; details: selectivity Z over M
# T2 construct: Alpha1-antitrypsin was purified from the plasma of ZZ and MM α1-antitrypsin homozygotes; from tissue; host or cells: plasma of MM homozygotes
# T2 sequence (P01009 25-418): as the sequence (P01009 25-418 V237A/E366K) above, with A213V, K342E counted along it
# Description: (§1) Alpha1-antitrypsin was purified from the plasma of ZZ and MM α1-antitrypsin homozygotes as described in Lomas et al., Biochemistry. 1993; 32:500-8. Recombinant Cys232Ser α1-antitrypsin was expressed and purified as detailed in Irving et al. Methods Enzymol. 2011; 501:421-66 and Haq et al. Biosci Rep. 2013; 33(3):e00046.
# (§2) A fluorescent derivative of compound 1 was prepared by derivatizing compound 1 at its ring nitrogen atom with an Alexa Fluor 488 label via a short organic linker group.
# (§3) A serial dilution of test compounds in DMSO was diluted 25-fold with assay buffer, and 2.5 μl of this intermediate dilution transferred to a black, low-volume 384-well microtitre plate (Greiner BioOne; product no. 784076). […]
# (§4) Plates were sealed and incubated overnight at room temperature, or for 3 days at 4° C. then 6 hours at room temperature. […] The TR-FRET signal was read on an Envision plate reader, by excitation of Terbium at 337 nm and detection of emission at 520 nm and 495 nm.
# (§5) Dissociation constants (KD) for the affinity of compounds to Z-a1AT or M-a1AT protein were derived from the pIC50 values according to the Cheng-Prusoff equation, taking into account the concentration of fluorescent ligand used in relation to its affinity as determined in independent Fluorescence Polarisation and TR-FRET experiments: KD(compound)=10^−pIC50(compound)/([…]. Compound Association Experiments
# Z α1-antitrypsin [2] = biological target: T1, Z α1-antitrypsin; test: Biochemical competition binding assay (TR-FRET), Z α1-antitrypsin; design: a random insertion of the human Z α1-antitrypsin gene; from tissue; host or cells: liver and plasma of Z α1-antitrypsin transgenic mice (human Z transgene); details: competition binding with fluorescently labelled derivative; read-out: affinity (KD) to Z α1-antitrypsin
# Description: as §1, §2, §3, §4, §5
# CHO-TET-ON-Z-A1AT cells = test: Cell viability assay with ER stressor tunicamycin; format: cell-based; details: 10 μM, versus cells expressing wild-type M α1-antitrypsin
# Description: To investigate the ability of Compound 1 to protect cells from sensitisation to a secondary toxin, Z α1-antitrypsin expression was induced in CHO-TET-ON-Z-A1AT cells in the presence or absence of 10 μM Compound 1 before exposure to varying concentrations of the ER stressor tunicamycin. In a cell viability assay, cells expressing wild-type M α1-antitrypsin were less sensitive to tunicamycin than cells expressing Z α1-antitrypsin.
structure (smiles),measurement,setting,value
"CCC[C@@H](NC(=O)c1cccc2c1CC(=O)N2)[C@@H](O)c1cccc(F)c1C [Compound 1, N-[(1S,2R)-1-(3-fluoro-2-methylphenyl)-1-hydroxypentan-2-yl]-2-oxo-2,3-dihydro-1H-indole-4-carboxamide]",transition midpoint temperature,α1-antitrypsin,marked increase
same,EC50,"Z α1-antitrypsin [1]; CHO-TET-ON-Z-A1AT cells, after 6 hours, read-out: pEC50, secretion of Z α1-antitrypsin (converted)",501 nM
same,increase of secreted levels of Z α1-antitrypsin,"Z α1-antitrypsin [1]; CHO-TET-ON-Z-A1AT cells, supernatant after 6 hours, compared to vehicle control",approximately 3 fold
same,EC50,"Z α1-antitrypsin [1]; cellular secretion assay, read-out: EC50 measured for secretion of Z α1-antitrypsin",~300 nM
same,fold lower affinity for plasma-purified wild-type M α1-antitrypsin,M α1-antitrypsin,at least 50 fold
same,Kd,Z α1-antitrypsin [2],1.5 nM
same,sensitivity to tunicamycin in cell viability assay,CHO-TET-ON-Z-A1AT cells,restored sensitivity

# Reference: US11919856B2, “Compounds” (UCL BUSINESS LTD, priority 2018, dated 2024)
